Source: ChEMBL document CHEMBL6087458, “The Discovery of a Novel AXL/Triple Angiokinase Inhibitor Based on 6-Chloro-Substituted Indolinone and Side Chain Methyl Substitution Inhibiting Pancreatic Cancer Growth and Metastasis” (J Med Chem, 2025)
Activity calls are given as the source filed them. The rule behind the calls is not given here.

Columns and labels:
MDA-MB-231 [1] = test: Inhibition of cell migration in human MDA-MB-231 cells assessed as decrease in cell migration incubated for 24 hrs by wound healing assay; type: functional, cell-based
BXPC-3 [2] = test: Induction of apoptosis in human BXPC-3 cells by annexin V-FITC/propidium iodide staining-based flow cytometry analysis; type: functional, cell-based
[3] = Cytotoxicity against human HUVEC cells assessed as cell viability incubated for 72 hrs by MTT assay; type: toxicity, cell-based
[4] = Oral bioavailability in Sprague-Dawley rat at 50 mg/kg; type: ADME, organism-based; conditions: Sprague-Dawley, in vivo
[5] = Antiproliferative activity against human HUVEC cells cultured as 3D tumor spheroids assessed as cell viability incubated for 72 hrs by CCK-8 assay; type: toxicity, cell-based
Mitochondrial membrane [6] = test: Induction of mitochondrial membrane potential depolarization in human MDA-MB-231 cells at 0.2 to 0.5 uM incubated for 24 hrs by JC-1 staining based flow cytometry analysis; type: cell membranes; conditions: dose 0.2-0.5 µM
A549/TR = test: cells; conditions: Homo sapiens, 72 h
Description: Antiproliferative activity against human A549/Taxol cells assessed as cell viability incubated for 72 hrs by MTT assay

[7] = Toxicity in mouse implanted with human BXPC-3 cells assessed as heart damage at 50 mg/kg, po by H and E staining based analysis; type: organism-based; conditions: in vivo
A549 = test: cells; conditions: Homo sapiens, A549, 72 h
Description: Antiproliferative activity against human A549 cells assessed as cell viability incubated for 72 hrs by MTT assay

BXPC-3 [8] = test: Antitumor activity against human BXPC-3 cells xenografted in mouse assessed as tumor growth inhibition at 25 mg/kg, po administered for 14 days; type: functional; conditions: BXPC-3, 336 h, time 14 day, read-out: TGI
NCI-H1975 = test: cells; conditions: Homo sapiens, NCI-H1975, 72 h
Description: Antiproliferative activity against human NCI-H1975 cells assessed as cell viability incubated for 72 hrs by MTT assay

Mitochondrial membrane [9] = test: Induction of mitochondrial membrane potential in mouse NIH/3T3 cells assessed as decrease in red fluorescence intensity incubated for 48 hrs by JC-1 staining based flow cytometry; type: cell membranes
BXPC-3 [10] = test: Effect on N-cadherin expression in TGF-beta induced human BXPC-3 cells at 0.1 to 0.5 uM incubated for 24 hrs by immunofluorescence assay; type: functional, cell-based; conditions: dose 0.1-0.5 µM
[11] = Tmax in Sprague-Dawley rat at 50 mg/kg, po; type: ADME, organism-based; conditions: in vivo
BXPC-3 [12] = test: Antitumor activity against human BXPC-3 cells xenografted in mouse assessed as reduction in tumor weight at 25 mg/kg, po administered for 14 days; type: functional; parameters: scale not given: the % may be the effect or the level left; conditions: time 14 day
BXPC-3 [13] = test: Antitumor activity against human BXPC-3 cells xenografted in mouse assessed as effect on E-cadherin expression in tumor at 25 to 50 mg/kg, po administered for 14 days; type: functional, organism-based; conditions: dose 25-50 mg/kg, time 14.0 day
[14] = molecular target: Vascular endothelial growth factor receptor 2 (Homo sapiens, UniProt P35968); test: Inhibition of KDR (unknown origin) by envision reader analysis
Vascular endothelial growth factor receptor 2, sequence (P35968 whole entry): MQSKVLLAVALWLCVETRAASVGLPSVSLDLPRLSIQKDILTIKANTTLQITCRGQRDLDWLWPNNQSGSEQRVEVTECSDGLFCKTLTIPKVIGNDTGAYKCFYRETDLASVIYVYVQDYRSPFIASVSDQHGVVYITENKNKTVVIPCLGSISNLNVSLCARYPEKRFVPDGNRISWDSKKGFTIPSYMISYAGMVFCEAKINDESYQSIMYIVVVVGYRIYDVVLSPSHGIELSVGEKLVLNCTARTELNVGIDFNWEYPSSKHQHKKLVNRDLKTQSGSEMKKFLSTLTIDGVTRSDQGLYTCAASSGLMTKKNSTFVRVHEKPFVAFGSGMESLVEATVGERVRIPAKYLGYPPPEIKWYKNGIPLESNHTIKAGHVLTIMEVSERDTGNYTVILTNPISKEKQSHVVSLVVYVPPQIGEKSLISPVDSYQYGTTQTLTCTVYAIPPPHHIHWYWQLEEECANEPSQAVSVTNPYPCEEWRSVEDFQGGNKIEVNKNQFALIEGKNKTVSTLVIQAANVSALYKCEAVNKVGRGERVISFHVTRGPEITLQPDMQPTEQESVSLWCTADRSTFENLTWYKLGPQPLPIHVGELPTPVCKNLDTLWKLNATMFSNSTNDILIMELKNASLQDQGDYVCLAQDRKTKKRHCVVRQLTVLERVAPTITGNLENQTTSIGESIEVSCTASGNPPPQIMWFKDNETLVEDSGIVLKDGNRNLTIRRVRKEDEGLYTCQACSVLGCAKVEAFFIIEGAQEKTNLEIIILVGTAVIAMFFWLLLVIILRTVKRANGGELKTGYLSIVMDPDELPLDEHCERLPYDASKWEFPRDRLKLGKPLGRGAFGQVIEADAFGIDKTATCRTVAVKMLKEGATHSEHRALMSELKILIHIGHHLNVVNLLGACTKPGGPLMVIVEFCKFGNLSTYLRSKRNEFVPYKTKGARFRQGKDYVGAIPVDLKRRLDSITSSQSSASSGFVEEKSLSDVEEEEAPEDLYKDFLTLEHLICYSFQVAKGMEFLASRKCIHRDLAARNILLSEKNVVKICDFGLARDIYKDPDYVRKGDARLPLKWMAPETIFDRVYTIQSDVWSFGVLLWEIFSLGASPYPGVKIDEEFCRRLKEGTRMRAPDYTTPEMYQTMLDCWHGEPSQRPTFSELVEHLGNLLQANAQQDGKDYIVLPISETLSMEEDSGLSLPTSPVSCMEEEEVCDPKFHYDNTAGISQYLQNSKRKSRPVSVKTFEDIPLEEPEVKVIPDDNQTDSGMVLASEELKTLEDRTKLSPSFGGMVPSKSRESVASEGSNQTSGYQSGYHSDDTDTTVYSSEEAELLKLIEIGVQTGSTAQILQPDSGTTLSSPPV

[15] = molecular target: Signal transducer and activator of transcription 3 (Homo sapiens) (UniProt P40763); test: Inhibition of STAT3 phosphorylation in human MDA-MB-231 cells incubated for 24 to 72 hrs by Western blot analysis; type: cell-based; conditions: dose <= 5.0 µM, time 24-72 hrs
Signal transducer and activator of transcription 3 (Homo sapiens), sequence (P40763 whole entry): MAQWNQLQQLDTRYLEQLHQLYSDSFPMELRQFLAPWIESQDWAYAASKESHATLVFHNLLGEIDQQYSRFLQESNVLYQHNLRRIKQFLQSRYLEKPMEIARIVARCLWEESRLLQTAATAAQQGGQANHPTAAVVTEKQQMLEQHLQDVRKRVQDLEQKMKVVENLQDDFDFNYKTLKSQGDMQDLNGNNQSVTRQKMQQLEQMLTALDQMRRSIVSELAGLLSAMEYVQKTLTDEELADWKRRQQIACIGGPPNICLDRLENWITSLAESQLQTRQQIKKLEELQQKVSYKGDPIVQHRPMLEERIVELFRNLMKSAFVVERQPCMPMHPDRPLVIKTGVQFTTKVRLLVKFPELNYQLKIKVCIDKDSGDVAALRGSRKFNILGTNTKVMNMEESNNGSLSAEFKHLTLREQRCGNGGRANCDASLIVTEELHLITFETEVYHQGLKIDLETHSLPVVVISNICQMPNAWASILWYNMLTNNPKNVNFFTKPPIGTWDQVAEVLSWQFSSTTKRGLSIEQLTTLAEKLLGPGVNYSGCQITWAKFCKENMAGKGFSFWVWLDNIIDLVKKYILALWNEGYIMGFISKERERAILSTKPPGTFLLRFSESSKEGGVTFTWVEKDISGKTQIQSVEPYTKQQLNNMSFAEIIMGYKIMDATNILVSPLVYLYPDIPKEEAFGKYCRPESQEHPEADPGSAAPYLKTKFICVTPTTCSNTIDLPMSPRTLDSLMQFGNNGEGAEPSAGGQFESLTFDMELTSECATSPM

BXPC-3 [16] = test: Inhibition of colony formation in human BXPC-3 cells at 0.5 uM incubated for 72 hrs; type: functional, cell-based
MDA-MB-231 [17] = test: Induction of apoptosis in human MDA-MB-231 cells assessed as increase in BAX expression at 0.1 to 1 uM incubated for 24 hrs by Western blot analysis; type: functional, cell-based; conditions: dose 0.1-1 µM
BXPC-3 [18] = test: Effect on E-cadherin expression in TGF-beta induced human BXPC-3 cells at 0.1 to 0.5 uM incubated for 24 hrs by immunofluorescence assay; type: functional, cell-based; conditions: dose 0.1-0.5 µM
[19] = molecular target: Signal transducer and activator of transcription 3 (Homo sapiens) (UniProt P40763); test: Inhibition of STAT3 phosphorylation in human BXPC-3 cells incubated for 24 to 72 hrs by Western blot analysis; type: cell-based; conditions: dose <= 5.0 µM, time 24-72 hrs
NIH3T3 = test: Antiproliferative activity against mouse NIH/3T3 cells cultured as 3D tumor spheroids assessed as reduction in pseudopodia on cell surface; type: functional, cell-based
BXPC-3 [20] = test: Antiproliferative activity against human BXPC-3 cells cultured as 3D tumor spheroids assessed as cell viability incubated for 7 days by CCK-8 assay; conditions: BXPC-3, 168 h
cells = conditions: Homo sapiens, CDDP-resistant A549 cell, 72 h
Description: Antiproliferative activity against human CDDP-resistant A549 cell assessed as cell viability incubated for 72 hrs by MTT assay

MDA-MB-231 [21] = test: Induction of apoptosis in human MDA-MB-231 cells assessed as decrease in Bcl-2 expression at 0.1 to 1 uM incubated for 24 hrs by Western blot analysis; type: functional, cell-based; conditions: dose 0.1-1 µM
[22] = AUC (0 to last) in Sprague-Dawley rat at 5 mg/kg, iv; type: ADME, organism-based; conditions: Sprague-Dawley, in vivo
MDA-MB-231 [23] = test: Effect on E-cadherin expression in TGF-beta induced human MDA-MB-231 cells at 0.1 to 0.5 uM incubated for 24 hrs by immunofluorescence assay; type: functional, cell-based; conditions: dose 0.1-0.5 µM
[24] = AUC (0 to last) in Sprague-Dawley rat at 50 mg/kg, po; type: ADME, organism-based; conditions: Sprague-Dawley, in vivo
BXPC-3 [25] = test: Induction of apoptosis in human BXPC-3 cells assessed as decrease in Bcl-2 expression at 0.1 to 1 uM incubated for 24 hrs by Western blot analysis; type: functional, cell-based; conditions: dose 0.1-1 µM
[26] = Half life in Sprague-Dawley rat at 50 mg/kg, po; type: ADME, organism-based; conditions: in vivo
HUVEC [27] = test: Inhibition of cell migration in human HUVEC cells assessed as decrease in migrating cells at 0.5 uM incubated for 24 hrs by wound healing assay; type: functional, cell-based
[28] = Metabolic stability in rat liver microsome assessed as half life measured upto 240 mins by HPLC analysis; type: ADME; conditions: liver microsomes
[29] = Toxicity in mouse implanted with human BXPC-3 cells at 25 to 50 mg/kg, po measured on day 11; type: organism-based; conditions: in vivo, 264 h, dose 25-50 mg/kg, time 11 day
MDA-MB-231 [30] = test: Effect on STAT3 level in human MDA-MB-231 cells incubated for 24 to 72 hrs by Western blot analysis; type: functional, cell-based; conditions: time 24-72 hrs
[31] = Cytotoxicity against human HEK293 cells assessed as inhibition of cell growth; type: toxicity, cell-based
[32] = Clearance in Sprague-Dawley rat at 5 mg/kg, iv; type: ADME, organism-based; conditions: in vivo
[33] = Cytotoxicity against mouse NIH/3T3 cells assessed as cell viability incubated for 72 hrs by MTT assay; type: toxicity, cell-based, NIH3T3
[34] = molecular target: Tyrosine-protein kinase ABL1 (Homo sapiens) (UniProt P00519); test: Inhibition of ABL1 (unknown origin) by envision reader analysis
Tyrosine-protein kinase ABL1 (Homo sapiens), sequence (P00519 whole entry): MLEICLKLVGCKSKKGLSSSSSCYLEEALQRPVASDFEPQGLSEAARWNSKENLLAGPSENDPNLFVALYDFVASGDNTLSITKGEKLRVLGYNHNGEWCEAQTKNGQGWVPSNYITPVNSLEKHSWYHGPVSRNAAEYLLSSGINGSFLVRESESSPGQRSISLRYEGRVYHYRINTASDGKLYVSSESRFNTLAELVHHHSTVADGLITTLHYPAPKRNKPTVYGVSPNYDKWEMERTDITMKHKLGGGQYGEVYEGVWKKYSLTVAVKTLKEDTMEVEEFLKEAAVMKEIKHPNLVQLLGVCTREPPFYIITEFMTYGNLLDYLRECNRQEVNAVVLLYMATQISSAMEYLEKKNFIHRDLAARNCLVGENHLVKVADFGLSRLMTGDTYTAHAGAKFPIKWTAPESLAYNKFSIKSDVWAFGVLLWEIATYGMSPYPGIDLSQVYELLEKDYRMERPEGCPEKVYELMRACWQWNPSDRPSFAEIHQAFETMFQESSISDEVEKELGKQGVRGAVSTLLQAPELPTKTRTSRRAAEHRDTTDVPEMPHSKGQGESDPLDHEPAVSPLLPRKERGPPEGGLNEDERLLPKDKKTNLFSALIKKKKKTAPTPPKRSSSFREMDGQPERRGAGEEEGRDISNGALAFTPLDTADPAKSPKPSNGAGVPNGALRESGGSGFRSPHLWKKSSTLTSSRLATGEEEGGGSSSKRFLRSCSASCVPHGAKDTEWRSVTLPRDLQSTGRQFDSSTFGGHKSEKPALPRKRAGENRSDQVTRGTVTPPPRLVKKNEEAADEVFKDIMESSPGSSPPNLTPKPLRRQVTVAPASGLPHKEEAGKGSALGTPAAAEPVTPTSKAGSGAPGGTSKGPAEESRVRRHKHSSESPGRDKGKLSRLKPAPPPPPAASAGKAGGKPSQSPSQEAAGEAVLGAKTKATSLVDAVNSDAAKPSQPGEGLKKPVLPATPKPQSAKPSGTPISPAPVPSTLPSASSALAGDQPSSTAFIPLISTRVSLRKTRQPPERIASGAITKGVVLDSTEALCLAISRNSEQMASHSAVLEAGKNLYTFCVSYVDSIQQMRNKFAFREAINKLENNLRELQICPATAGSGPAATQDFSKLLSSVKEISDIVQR

BXPC-3 [35] = test: Effect on AXL expression in human BXPC-3 cells; type: functional, cell-based
Homo sapiens = species: Homo sapiens; test: Inhibition of PDGFR (unknown origin) by envision reader analysis
HUVEC [36] = test: Anti-angiogenesis activity in HUVEC assessed as reduction in number of vascular nodes at 0.5 to 2 uM incubated for 24 hrs by Calcein AM staining based light microscopic analysis; type: functional, cell-based; conditions: Homo sapiens, dose 0.5-2 µM
[37] = Cytotoxicity against human HaCaT cells assessed as inhibition of cell growth; type: toxicity, cell-based
[38] = Toxicity in mouse implanted with human BXPC-3 cells assessed as kidney damage at 50 mg/kg, po by H and E staining based analysis; type: organism-based; conditions: in vivo
[39] = molecular target: Serine/threonine-protein kinase SIK2 (Homo sapiens) (UniProt Q9H0K1); test: Inhibition of QIK (unknown origin) by envision reader analysis
Serine/threonine-protein kinase SIK2 (Homo sapiens), sequence (Q9H0K1 whole entry, looked up): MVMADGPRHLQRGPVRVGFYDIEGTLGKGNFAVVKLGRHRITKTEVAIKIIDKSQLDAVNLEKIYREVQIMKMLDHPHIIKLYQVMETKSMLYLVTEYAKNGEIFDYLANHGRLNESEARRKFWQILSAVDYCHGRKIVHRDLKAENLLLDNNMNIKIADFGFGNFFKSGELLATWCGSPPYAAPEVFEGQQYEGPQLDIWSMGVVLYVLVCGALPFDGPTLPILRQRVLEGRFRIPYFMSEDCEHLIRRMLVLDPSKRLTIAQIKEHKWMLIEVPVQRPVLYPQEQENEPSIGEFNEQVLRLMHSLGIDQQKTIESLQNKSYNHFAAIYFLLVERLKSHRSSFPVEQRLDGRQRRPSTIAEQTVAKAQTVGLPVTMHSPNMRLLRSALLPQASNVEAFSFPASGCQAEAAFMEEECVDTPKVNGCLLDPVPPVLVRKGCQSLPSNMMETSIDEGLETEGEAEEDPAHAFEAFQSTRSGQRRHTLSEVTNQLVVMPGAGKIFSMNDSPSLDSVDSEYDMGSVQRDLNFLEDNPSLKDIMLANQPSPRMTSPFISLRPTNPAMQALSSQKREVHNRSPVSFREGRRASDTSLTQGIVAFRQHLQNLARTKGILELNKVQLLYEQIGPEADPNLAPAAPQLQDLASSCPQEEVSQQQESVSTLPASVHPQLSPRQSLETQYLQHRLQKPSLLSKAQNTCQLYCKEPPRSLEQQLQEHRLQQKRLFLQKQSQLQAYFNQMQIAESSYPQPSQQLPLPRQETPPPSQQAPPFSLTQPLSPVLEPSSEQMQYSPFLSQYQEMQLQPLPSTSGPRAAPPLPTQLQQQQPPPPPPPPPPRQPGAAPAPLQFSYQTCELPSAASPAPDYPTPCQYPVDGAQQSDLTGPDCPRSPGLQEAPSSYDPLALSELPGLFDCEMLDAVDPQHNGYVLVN

Q: For `CCN1CCN(C(C)C(=O)N(C)c2ccc(N/C(=C3\C(=O)Nc4cc(Cl)ccc43)c3ccccc3)cc2)CC1` (racemic), which inhibition (MDA-MB-231 [1]) is on record?
A: Its inhibition is “Active”.

Q: And the Activity (BXPC-3 [2])?
A: The Activity was “Active”.

Q: What about the IC50 at 72 h [3] of the same compound?
A: Its IC50 at 72 h is 430 nM.

Q: And the bioavailability [4]?
A: Its bioavailability is 6.53%.

Q: And the IC50 at 72 h [5]?
A: The IC50 at 72 h was 1540 nM.

Q: And the Activity (Mitochondrial membrane [6])?
A: The Activity was “Active”.

Q: What about the IC50 (A549/TR) of the same compound?
A: Its IC50 is 4770 nM.

Q: And the Activity [7]?
A: Its Activity is “Non-toxic”.

Q: What about the IC50 (A549) of the same compound?
A: Its IC50 is 250 nM.

Q: What about the inhibition in vivo at 25 mg/kg (BXPC-3 [8]) of the same compound?
A: The inhibition in vivo at 25 mg/kg was 96.7%.

Q: And the IC50 (NCI-H1975)?
A: The IC50 was 4380 nM.

Q: And the Activity (Mitochondrial membrane [9])?
A: Its Activity is “Active”.

Q: And the Activity (BXPC-3 [10])?
A: Its Activity is “Active”.

Q: What about the Tmax [11] of the same compound?
A: Its Tmax is 8 h.

Q: What about the Activity (BXPC-3 [12]) of the same compound?
A: The Activity was 71%.

Q: And the Activity (BXPC-3 [13])?
A: Its Activity is “Active”.

Q: And the IC50 [14]?
A: Its IC50 is 1.52 nM.

Q: And the inhibition [15]?
A: Its inhibition is “Dose-dependent-effect”.

Q: And the inhibition (BXPC-3 [16])?
A: The inhibition was “Active”.

Q: And the Activity (MDA-MB-231 [17])?
A: Its Activity is “Active”.

Q: And the Activity (BXPC-3 [18])?
A: The Activity was “Active”.

Q: And the inhibition [19]?
A: The inhibition was “Dose-dependent-effect”.

Q: What about the Activity (NIH3T3) of the same compound?
A: Its Activity is “Active”.

Q: What about the IC50 (BXPC-3 [20]) of the same compound?
A: The IC50 was 1620 nM.

Q: And the IC50 (cells)?
A: The IC50 was 5400 nM.

Q: And the Activity (MDA-MB-231 [21])?
A: Its Activity is “Active”.

Q: And the AUC(0-t) [22]?
A: The AUC(0-t) was 1770 ng·h/mL.

Q: And the Activity (MDA-MB-231 [23])?
A: Its Activity is “Active”.

Q: And the AUC(0-t) [24]?
A: Its AUC(0-t) is 1150 ng·h/mL.

Q: And the Activity (BXPC-3 [25])?
A: Its Activity is “Active”.

Q: And the half-life [26]?
A: Its half-life is 18.8 h.

Q: What about the inhibition (HUVEC [27]) of the same compound?
A: The inhibition was “Active”.

Q: What about the half-life [28] of the same compound?
A: The half-life was 0.518 h.

Q: And the Activity [29]?
A: The Activity was “Non-toxic”.

Q: And the Activity (MDA-MB-231 [30])?
A: Its Activity is “inactive”.

Q: And the IC50 [31]?
A: The IC50 was over 10000 nM.

Q: And the clearance [32]?
A: Its clearance is 46.5 mL/min/kg.

Q: And the IC50 at 72 h [33]?
A: The IC50 at 72 h was 1140 nM.

Q: What about the inhibition [34] of the same compound?
A: Its inhibition is “Active”.

Q: What about the Activity (BXPC-3 [35]) of the same compound?
A: Its Activity is “Active”.

Q: What about the inhibition (Homo sapiens) of the same compound?
A: Its inhibition is “Active”.

Q: What about the Activity (HUVEC [36]) of the same compound?
A: Its Activity is “Active”.

Q: What about the IC50 [37] of the same compound?
A: Its IC50 is over 10000 nM.

Q: And the Activity [38]?
A: The Activity was “Non-toxic”.

Q: And the inhibition [39]?
A: The inhibition was “Active”.
